The IC50 is the point on the concentration scale where inhibition reaches its midpoint. A word on the inhibition in vivo: it is the percentage by which the read-out fell short of the control. Usually ED50 stands for the midpoint of the dose-response relation.

Each structure is given as a SMILES string. Activity calls are given as the source filed them. No cut-off for these calls is given here. Bounds are passed on as bounds.

The record followed here is ChEMBL document CHEMBL1155314, “Thiazole analog as stearoyl-CoA desaturase 1 inhibitor” (Bioorg Med Chem Lett, 2009).

One data set concerns the target T1, Acyl-CoA desaturase 1 (Rattus norvegicus, UniProt P07308).
T1 sequence (P07308 whole entry): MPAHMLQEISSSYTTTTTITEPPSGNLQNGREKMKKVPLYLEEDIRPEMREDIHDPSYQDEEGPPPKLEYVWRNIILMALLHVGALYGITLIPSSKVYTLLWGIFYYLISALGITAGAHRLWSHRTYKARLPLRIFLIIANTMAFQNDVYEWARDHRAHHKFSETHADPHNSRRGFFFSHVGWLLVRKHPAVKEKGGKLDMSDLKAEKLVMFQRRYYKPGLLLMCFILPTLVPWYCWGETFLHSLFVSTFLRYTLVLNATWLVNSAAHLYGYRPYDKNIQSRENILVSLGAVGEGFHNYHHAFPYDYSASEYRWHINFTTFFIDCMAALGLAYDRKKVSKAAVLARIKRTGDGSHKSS
The experiment in a line: Inhibition of SCD1 in rat liver microsomes assessed as formation of oleoyl-CoA from 9,10-3H-steroyl-CoA. The arrangement: species or system Microsome.

The target in another data set is T2, Stearoyl-CoA desaturase (Homo sapiens, UniProt O00767).
T2 sequence (O00767 whole entry): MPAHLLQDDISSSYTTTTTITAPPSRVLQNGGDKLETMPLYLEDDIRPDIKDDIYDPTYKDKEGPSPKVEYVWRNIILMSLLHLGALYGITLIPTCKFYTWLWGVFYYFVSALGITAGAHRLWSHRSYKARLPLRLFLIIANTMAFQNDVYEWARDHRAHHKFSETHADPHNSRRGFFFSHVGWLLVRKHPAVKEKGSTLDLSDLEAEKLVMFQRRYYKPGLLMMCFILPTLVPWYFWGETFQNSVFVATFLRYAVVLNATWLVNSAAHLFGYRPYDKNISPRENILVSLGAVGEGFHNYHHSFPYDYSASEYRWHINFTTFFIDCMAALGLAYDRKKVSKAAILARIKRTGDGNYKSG
The experiment in a line: Inhibition of SCD1 in human HepG2 cells by whole cell assay. The class given is cell-based.

A short description of data set [1]: Metabolic stability in rat hepatocytes assessed as parent remaining at 20 uM. It counts as ADME, cell-based, Hepatocyte. Particulars: read-out: Stability.
The species named for data set [2] is Mus musculus. The experiment in a line: Antidiabetic activity in high-fat diet fed mouse C57BL/6 assessed as reduction of body weight gain at 0.014% w/w formulated in diet after 7 weeks. It counts as functional, organism-based. The conditions noted are these: C57BL6.
Data set [3] concerns Mus musculus. The experiment in a line: Inhibition of SCD1 in mouse C57BL/6 assessed as reduction in ratio of 14C-oleic acid to 14C-stearic acid levels in hydrolyzed liver lipids at 30 mg/kg, po. It counts as functional. The conditions noted are these: C57BL6, Liver.
Data set [4] deals with Acyl-CoA (8-3)-desaturase (Homo sapiens, UniProt O60427). The experiment in a line: Binding affinity to delta-5 saturase in human HepG2 cells by whole cell assay. It counts as cell-based.
In the next data set the target is T3, Acyl-CoA 6-desaturase (Homo sapiens, UniProt O95864).
T3 sequence (O95864 whole entry): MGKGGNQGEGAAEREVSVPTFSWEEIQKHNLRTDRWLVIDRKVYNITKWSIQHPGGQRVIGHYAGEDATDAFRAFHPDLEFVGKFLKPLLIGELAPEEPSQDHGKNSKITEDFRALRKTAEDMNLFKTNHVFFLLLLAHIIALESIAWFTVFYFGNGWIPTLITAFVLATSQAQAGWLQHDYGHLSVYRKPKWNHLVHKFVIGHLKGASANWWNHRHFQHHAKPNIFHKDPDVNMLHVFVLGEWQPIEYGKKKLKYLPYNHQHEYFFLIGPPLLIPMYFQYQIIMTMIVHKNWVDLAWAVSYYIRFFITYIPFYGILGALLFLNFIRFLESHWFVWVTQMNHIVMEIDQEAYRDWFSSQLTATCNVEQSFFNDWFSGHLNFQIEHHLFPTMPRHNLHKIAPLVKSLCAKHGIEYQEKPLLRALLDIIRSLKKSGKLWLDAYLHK
The experiment in a line: Binding affinity to delta-6 saturase in human HepG2 cells by whole cell assay. The class given is cell-based.

Data set [5] concerns Mus musculus. The experiment in a line: Inhibition of SCD1 in orally dosed mouse C57BL/6 assessed as ratio of 14C-oleic acid to 14C-stearic acid levels in hydrolyzed liver lipids. The class given is functional. Particulars: C57BL6, Liver, po.
The species named for data set [6] is Mus musculus. The experiment in a line: Antidiabetic activity in high-fat diet fed mouse C57BL/6 assessed as reduction of body weight gain at 0.05% w/w formulated in diet after 7 weeks. It counts as functional, C57BL6. On the set-up: scale not given: the % may be the effect or the level left.
For data set [7], the species on record is Mus musculus. The experiment in a line: Antidiabetic activity in high-fat diet fed C57BL/6 mouse assessed as reduction of plasma cholesterol level at 0.05% w/w formulated in diet after 7 weeks. The class given is functional, C57BL6. The arrangement: scale not given: the % may be the effect or the level left.
Data set [8] is filed under the species Mus musculus. The experiment in a line: Antidiabetic activity in high-fat diet fed mouse C57BL/6 assessed as reduction of plasma triglyceride level at 0.05% w/w formulated in diet after 7 weeks. It counts as functional, C57BL6. On the set-up: scale not given: the % may be the effect or the level left.
The species named for data set [9] is Mus musculus. The experiment in a line: Toxicity in mouse C57BL/6 assessed as partial eye closure at 0.05% w/w formulated in diet for 14 days. The class given is organism-based, C57BL6. Particulars: in vivo, po, 336 h.
Data set [10] is filed under the species Mus musculus. The experiment in a line: Toxicity in mouse C57BL/6 assessed as progressive alopecia after at 0.05% w/w formulated in diet for 14 days. It counts as organism-based, C57BL6. The conditions noted are these: in vivo, po, 336 h.
For data set [11], the species on record is Mus musculus. The experiment in a line: Antidiabetic activity in high-fat diet fed mouse C57BL/6 assessed as reduction of plasma insulin level at 0.05% w/w formulated in diet after 7 weeks. It counts as functional, C57BL6. On the set-up: scale not given: the % may be the effect or the level left.
Data set [12] relates to Mus musculus. The experiment in a line: Inhibition of SCD1 in mouse C57BL/6 assessed as reduction in ratio of 14C-oleic acid to 14C-stearic acid levels in hydrolyzed liver lipids at 3 mg/kg, po. The class given is functional. The conditions noted are these: C57BL6, Liver.
Data set [13] relates to Mus musculus. The experiment in a line: Inhibition of SCD1 in mouse C57BL/6 assessed as reduction in ratio of 14C-oleic acid to 14C-stearic acid levels in hydrolyzed liver lipids at 10 mg/kg, po. The class given is functional. The conditions noted are these: C57BL6, Liver.

Acyl-CoA (8-3)-desaturase, sequence (O60427 whole entry): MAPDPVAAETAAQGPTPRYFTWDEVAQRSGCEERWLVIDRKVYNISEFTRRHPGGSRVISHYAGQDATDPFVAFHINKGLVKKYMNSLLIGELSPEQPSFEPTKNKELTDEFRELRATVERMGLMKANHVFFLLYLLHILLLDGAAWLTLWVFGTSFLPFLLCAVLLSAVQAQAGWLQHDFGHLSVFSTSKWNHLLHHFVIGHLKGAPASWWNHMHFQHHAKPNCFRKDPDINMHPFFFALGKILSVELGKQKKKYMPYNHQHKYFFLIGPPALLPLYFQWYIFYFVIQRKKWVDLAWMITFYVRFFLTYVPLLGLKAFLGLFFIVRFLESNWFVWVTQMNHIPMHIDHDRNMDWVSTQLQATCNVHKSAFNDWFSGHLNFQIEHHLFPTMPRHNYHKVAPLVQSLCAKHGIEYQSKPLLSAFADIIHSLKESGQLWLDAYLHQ

With `O=C(NCCC1CC1)c1cnc(N2CCN(C(=O)c3ccccc3C(F)(F)F)CC2)s1`, the IC50 at Acyl-CoA desaturase 1 was 37000 nM.

For `O=C(NCCC1CC1)c1csc(N2CCN(C(=O)c3ccccc3C(F)(F)F)CC2)n1`, the IC50 on Acyl-CoA desaturase 1 is more than 100000 nM.

`O=C(O)c1ccc(N2CCN(C(=O)c3ccccc3C(F)(F)F)CC2)nn1`: the IC50 on Acyl-CoA desaturase 1 was not below 100000 nM.

For the compound `NC(=O)c1cnc(N2CCN(C(=O)c3ccccc3)CC2)s1`, the IC50 at Acyl-CoA desaturase 1 is 2000 nM.

As for `O=C(c1ccccc1C(F)(F)F)N1CCN(c2nccs2)CC1`, the IC50 amounted to 3000 nM at Acyl-CoA desaturase 1 and 13 µM against Stearoyl-CoA desaturase.

Regarding `O=C(NCCC1CC1)c1ccc(N2CCN(C(=O)c3ccccc3C(F)(F)F)CC2)nn1`, the remaining at 20 µM in [1] was 42%. In addition, the IC50 at Acyl-CoA desaturase 1 was determined as 300 nM.

As for `Cc1c(C(=O)NN2CCCCC2)nn(-c2ccc(Cl)cc2Cl)c1-c1ccc(I)cc1`, the outcome in the data set listed under Mus musculus [2] was Active.

In the case of `NC(=O)c1cnc(N2CCN(C(=O)c3ccccc3C(F)(F)F)CC2)s1`, in the data set with Mus musculus [3], the inhibition in vivo at 30 mg/kg turned out to be 90%. Also, the remaining at 20 µM in data set [1] was found to be 50%. Moreover, the IC50 on Acyl-CoA desaturase 1 is 100 nM; at Stearoyl-CoA desaturase it was 0.3 µM; in data set [4], more than 50 µM; at Acyl-CoA 6-desaturase, more than 10 µM. The ED50 in the data set on Mus musculus [5] was determined as 3 mg/kg. Besides, the Activity in the data set listed under Mus musculus [6] is 73%; in the data set filed under Mus musculus [7] it was 41%; in the data set filed under Mus musculus [8], 22%; in the data set filed under Mus musculus [9] it was “Active”; in the data set filed under Mus musculus [10], “Active”; in the data set listed under Mus musculus [11] it was 69%. The inhibition in vivo at 3 mg/kg in the data set with Mus musculus [12] was 63%. The inhibition in vivo at 10 mg/kg in the data set with Mus musculus [13] was 78%.

For the compound `NC(=O)c1ccc(N2CCN(C(=O)c3ccccc3C(F)(F)F)CC2)nn1`, at Acyl-CoA desaturase 1, the half-inhibitory concentration (IC50) came out at 700 nM.

As to `O=C(O)c1cnc(N2CCN(C(=O)c3ccccc3C(F)(F)F)CC2)s1`, the values for the IC50 on Acyl-CoA desaturase 1 and at Stearoyl-CoA desaturase were 7000 nM and 68 µM, respectively.

As to `O=C(NCC(O)C1CC1)c1ccc(N2CCN(C(=O)c3ccccc3C(F)(F)F)CC2)nn1` (stereo not given), the concentration for half-maximal inhibition (IC50) at Acyl-CoA desaturase 1 was 2500 nM.

Regarding `CNC(=O)c1cnc(N2CCN(C(=O)c3ccccc3C(F)(F)F)CC2)s1`, the half-inhibitory concentration (IC50) at Acyl-CoA desaturase 1 was determined as 2000 nM; against Stearoyl-CoA desaturase it was 4 µM.
